Source: PMC7002685, “Inhibition of vascular calcification by inositol phosphates derivatized with ethylene glycol oligomers” (Nature Communications, 2020)
Values joined by “and” are separate entries in the source; they are usually repeats but may differ in a detail not shown here. Identical values can stand only once. Like-named read-outs stand apart in the source and are kept apart here.

Experiments:
[1] = Inhibition of calcium phosphate precipitation in serum-free buffer; type: physicochemical; conditions: for inhibition of calcium phosphate precipitation, serum-free: 10 mM calcium, 6 mM phosphate, HBS pH 7.4, 90 min, 37 °C
From the text: calcification in organs other than these are available from the present study.
We have included the latest research on CPPs and the respective literature now in the introduction (p. 4, line 74 ff.).
The way I see it the compound stabilizes CPP1, which can be more easily cleared unless it occurs in very high amounts and cannot be cleared at all. Therefore it is important to measure renal mineral clearance ± compound (see comment for Fig 3)
We have amended the discussion in the revised manuscript with respect to the hypothesis on the mechanism of action of (OEG2)2-IP4 postulated by the reviewer. (p. 32, line 614 ff.). We have further addressed the mechanism of action in response to Reviewer #4 Comment 3.
Did they test if (OEG2)2-IP4 compound alone stabilized supersaturated Ca and Pi solutions by forming colloids akin to CPP? […]
and phosphate and formation of hydroxyapatite with the assay from Heiss, A. et al.5. In brief, compound, 10 mM calcium solution and 6 mM phosphate solution in Hepes buffered saline (pH 7.4, RT) were incubated for 90 min at 37 °C and centrifuged at 8 000 x g for 5 min. The recovered pellet was dissolved in 1% (v/v) acetic acid and the calcium content quantified […]. (OEG2)2-IP4 alone stabilized supersaturated calcium and phosphate in […]
CPP1s (Rh < 100 nm) were detected by dynamic light scattering. […]
synergistic effect of (OEG2)2-IP4 with endogenous calcification inhibitors, such as fetuin-A in […]
that are not physiological (no serum), we prefer not to include these additional data in the […]

[2] = system: transformation of CPP1 to CPP2 in pooled human serum; experiment: In vitro serum calcification propensity (T50) screening assay; type: biochemical; design: key to T50: T50 in minutes (time to 50% CPP phase transition); conditions: for activity/unit mass: mean c350 x mw (Na salt); for concentration upon which a T50 of 350 min is reached (c350), mean: mean of n experiments
[3] = system: primary human VSMCs; experiment: VSMC viability (MTS), compounds only; type: cell-based; conditions: for VSMC viability (MTS), % of medium control: compound only
[4] = system: primary human VSMCs; experiment: VSMC viability (MTS) in CPP2-supplemented medium; type: cell-based
Description: (§1) Macrophage accumulation and inflammation coincide with the initial phase of calcification. To this end, VSMCs and THP-1-derived macrophages were exposed to CPP2-supplemented medium. CPP2 prepared from human serum as described previously[61] (Supplementary Figs. 6 and 7), induced a pronounced VSMC monolayer calcification after 48 h, which was decreased by (OEG2)2-IP4 in a dose-dependent fashion, and the effect became significant at 10 µM (Fig. 3e). […] Both H2O2 (proxy for oxidative stress) and tumor necrosis factor-alpha (TNF-α) (proxy for inflammatory response) levels were assayed in the VSMC culture supernatants subsequent to CPP2 treatment with and without compounds[30]. However, no increase in H2O2 nor TNF-α compared to control could be detected in either assay. For the CPP-induced VSMC calcification assay (Fig. 3e) a roughly 10-fold higher concentration of (OEG2)2-IP4 was necessary to achieve similar activity as in the CaP-induced VSMC calcification assay (Fig. 3b). […] In the CaP assay, low inhibitor concentration may be sufficient to inhibit crystal nucleation, whereas for the CPP assay higher inhibitor concentrations may be needed to achieve sufficient particle stabilization by chemisorption of inhibitor onto CPPs. Similar results have been reported for hydrogen sulfide in the context of VC[62],[64]. […] An increase in the TNFα levels in the cell culture supernatants was not observed for (OEG2)2-IP4 with (Fig. 3h) and without (Supplementary Fig. 10) combined CPP2 treatment.
(§2) Cell viability was assessed using the MTS assay (CellTiter 96® Aqueous One Solution Cell Proliferation Assay, G3580; Promega, Madison, WI, USA) according to the manufacturer’s instructions. Assays using combined treatment of CPPs or CaP and test compounds were performed in 24-well plates using 20,000 cells per well and assays using test compounds only were performed in a 96-well plate format with a seeding density of 10,000 (VSMC) or 50,000 (THP-1) cells per well, respectively. For controls, cells were treated with respective complete medium only and results were calculated as % of control.

[5] = VSMC viability (MTS) in CPP2-supplemented medium; type: cell-based, human; conditions: human, read-out: VSMC viability (MTS), % of medium control; for viability at 48 h, 3 µM: 3 µM with CPP2; for viability at 48 h, 10 µM: 10 µM with CPP2; for viability at 48 h, 30 µM: 30 µM with CPP2
Description: as §1, §2

[6] = 3 µM, individual experiments, Fig. 2a
[7] = 10 µM, individual experiments, Fig. 2a
[8] = 1 µM with CPP2, replicates Fig. 3f

SMILES | inhibition of calcium phosphate precipitation, serum-free [1] | T50 [2, 6] | T50 [2, 7] | activity/unit mass [2] [mg/L] | concentration upon which a T50 of 350 min is reached (c350), mean [2] [µM] | VSMC viability (MTS), % of medium control ([3]; 0.01 µM, replicates Fig. 3a) | VSMC viability (MTS), % of medium control ([3]; 0.1 µM) | VSMC viability (MTS), % of medium control ([3]; 1 µM) | VSMC viability (MTS), % of medium control ([3]; 10 µM) | VSMC viability (MTS), % of medium control ([3]; 100 µM) | VSMC viability (MTS), % of medium control [4, 8] | VSMC viability (MTS), % of medium control ([4]; 3 µM with CPP2) | VSMC viability (MTS), % of medium control ([4]; 10 µM with CPP2) | VSMC viability (MTS), % of medium control ([4]; 30 µM with CPP2) | VSMC viability (MTS), % of medium control ([4]; 100 µM with CPP2) | other results
COCCOCCO[C@@H]1[C@@H](OP(=O)(O)O)[C@H](OCCOCCOC)[C@@H](OP(=O)(O)O)[C@@H](OP(=O)(O)O)[C@H]1OP(=O)(O)O [(OEG2)2-IP4, 4,6-Di-O-(methoxy-diethyleneglycol)-myo-inositol-1,2,3,5-tetrakis(phosphate)] | stabilized supersaturated calcium and phosphate in solution dose dependently | 295.5 min and 257.733 min and 269.633 min | 669.833 min and 505.133 min and 608.55 min | 4.30 | 4.9 | 106.7% and 112.6% and 127.9% | 105.4% and 101.1% and 125.7% | 106.9% and 113.8% | 100.7% and 120.7% | 101.2% and 99.46% and 122.9% | 111.835% and 81.6116% and 105.448% | 87.2434% and 103.748% | 94.1761% and 106.452% | 95.6307% and 101.925% | 103.228% and 101.178% | precipitate formation, serum-free ([1]; 1 mM): no precipitate formed; T50 ([2]; 0.3 µM, individual experiments, Fig. 2a): 225.667 min and 200.6 min and 198.8 min; T50 ([2]; 1 µM, individual experiments, Fig. 2a): 245.5 min and 222.6 min and 227.433 min; T50 ([2]; concentration 0.3 μM, one value per experiment): 225.667 and 200.6 and 198.8; T50 ([2]; concentration 1 μM, one value per experiment): 245.5 and 222.6 and 227.433; T50 ([2]; concentration 3 μM, one value per experiment): 295.5 and 257.733 and 269.633; T50 ([2]; concentration 10 μM, one value per experiment): 669.833 and 505.133 and 608.55; stronger inhibition than (OEG11)2-IP4, activity by unit mass ([2]; from c350 in mg/L): 32%; concentration upon which a T50 of 350 min is reached (c350), single experiment ([2]; one value per experiment (lab journal reference E05-E40)): 4.3 µM and 5.9 µM and 5.0 µM and 3.6 µM and 5.4 µM; Concentration at T50 = 350 min mean ± s.d. (n) (c350) ([2]; pooled human serum, 10 mM calcium, 6 mM phosphate, 37 °C): 4.9 ± 0.8 µM and 4.3 ± 0.7 mg/L; changes in cell viability ([3]; 0.01–100 µM): did not lead to any changes in cell viability; VSMC viability in CPP2 setup [4]: did not reduce VSMC viability; viability at 48 h, 3 µM [5]: 102%; viability at 48 h, 10 µM [5]: 104%; viability at 48 h, 30 µM [5]: 101%; viability at 48 h, 100 µM ([5]; 100 µM with CPP2): 93.7%
O=P(O)(O)O[C@H]1[C@H](OP(=O)(O)O)[C@@H](OP(=O)(O)O)[C@H](OP(=O)(O)O)[C@@H](OP(=O)(O)O)[C@H]1OP(=O)(O)O [IP6, myo-Inositol hexakisphosphate] | barely effective | 234.667 min and 274 min and 233.967 min and 253.933 min and 243.267 min and 241.767 min and 246.2 min and 235.9 min and 228.633 min and 203.267 min and 288.2 min and 222.867 min and 230.267 min and 213.667 min and 216.7 min and 265.633 min and 255.267 min | 257.5 min and 310.933 min and 271.067 min and 277.3 min and 252.767 min and 292.233 min and 259.167 min and 287.2 min and 285.433 min and 258.3 min and 249.2 min and 255.267 min and 337.4 min and 269.2 min and 241.433 min and 220.9 min and 227.45 min and 265.233 min and 247.333 min and 278 min and 268.867 min | 30.85 | 35.0 | 107.6% and 117.7% and 127.9% | 101.2% and 116.5% and 123.9% | 102.4% and 110.2% and 123.7% | 107.1% and 105.1% and 128.6% | 108.9% and 116.9% and 143.6% | 94.0938% and 110.013% | 97.0633% and 115.505% | 97.8153% and 108.364% | 106.197% and 112.672% | 103.122% and 102.613% and 123.477% | T50 ([2]; 4.1 µM, individual experiments, Fig. 2a): 217.4 min and 239.4 min and 277.7 min and 241.067 min; T50 ([2]; 5 µM, individual experiments, Fig. 2a): 249.8 min and 203.1 min and 210 min; T50 ([2]; 8.2 µM, individual experiments, Fig. 2a): 256.2 min; T50 ([2]; 15 µM, individual experiments, Fig. 2a): 257.433 min and 252.1 min and 309.067 min and 247.867 min; T50 ([2]; 20 µM, individual experiments, Fig. 2a): 287.15 min and 265.7 min and 269.8 min; T50 ([2]; 30 µM, individual experiments, Fig. 2a): 345.45 min and 406.133 min and 372.8 min and 351.75 min and 343.7 min and 344.2 min and 259.35 min and 335.5 min and 347.9 min and 378.6 min and 321.233 min and 338 min and 297.667 min and 289.1 min and 328.133 min and 313.633 min and 374.867 min and 311.7 min and 330.9 min and 290.033 min and 322.15 min and 364.5 min and 339.867 min; T50 ([2]; 50 µM, individual experiments, Fig. 2a): 415 min and 521.55 min and 441.5 min and 442 min and 442.167 min and 430.55 min and 469.15 min and 469.7 min and 444.5 min and 341.15 min and 548.25 min and 437.6 min and 408.433 min and 339.067 min and 334.933 min and 396.5 min and 364.133 min and 373.7 min and 353.2 min and 360.8 min and 372.45 min and 446.2 min and 371.033 min and 410.7 min; viability at 48 h, 1 µM ([5]; primary human VSMCs, 1 µM with CPP2, replicates Fig. 3f): 100%; viability at 48 h, 3 µM ([5]; primary human VSMCs): 106%; viability at 48 h, 10 µM ([5]; primary human VSMCs): 109%; viability at 48 h, 30 µM ([5]; primary human VSMCs): 94.2%
